From PubChem BioAssay (NCI) come the findings set out here.

Test systems include 786-0 renal; ACHN renal; BT-549 breast; COLO 205 colon; HCT-116 colon; HCT-15 colon; HS 578T breast; IGROV1 ovarian; MDA-MB-435; MOLT-4 leukemia; NCI-H460 lung; OVCAR-5 ovarian; SF-268 CNS; SK-MEL-28 melanoma; SK-OV-3 ovarian; SW-620 colon; T-47D breast; UO-31 renal.
Test in all cases: NCI anticancer screen, dose series, 48 h

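Exposure lasted 48 hours, with cells grown in 96-well plates and compounds tested at five concentrations. TGI: total growth inhibition.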

In the case of `COc1cccc(Nc2nc(N)nc(N)c2N)c1`, the TGI in the experiment with 786-0 renal was over 100 µM; in the experiment on ACHN renal, over 100 µM; with BT-549 breast, over 100 µM; in the experiment with COLO 205 colon, over 100 µM; with HCT-116 colon it was 53.8 µM; in the experiment with HCT-15 colon it was over 100 µM. Besides, the TGI with HS 578T breast is over 100 µM; in the experiment with IGROV1 ovarian, over 100 µM; in the experiment on MDA-MB-435, over 100 µM; in the experiment on MOLT-4 leukemia it was 34.5 µM; in the experiment on NCI-H460 lung, 43.6 µM; with OVCAR-5 ovarian, over 100 µM. Moreover, the TGI is over 100 µM with SF-268 CNS; over 100 µM with SK-MEL-28 melanoma; over 100 µM in the experiment on SK-OV-3 ovarian; 91.1 µM with SW-620 colon; over 100 µM with T-47D breast; over 100 µM with UO-31 renal.
On to `CCS(=O)(=O)CCn1c(=O)c2c(ncn2C)n(C)c1=O`, for which the TGI in the experiment with 786-0 renal, in the experiment on ACHN renal, with BT-549 breast, in the experiment on COLO 205 colon, with HCT-116 colon and in the experiment on HCT-15 colon was over 100 µM each time. Besides, the TGI with HS 578T breast, in the experiment on IGROV1 ovarian, with MDA-MB-435, in the experiment with MOLT-4 leukemia, in the experiment with NCI-H460 lung and with OVCAR-5 ovarian was over 100 µM each time. Also, the TGI in the experiment on SF-268 CNS, in the experiment with SK-MEL-28 melanoma, in the experiment on SW-620 colon, in the experiment on T-47D breast and with UO-31 renal was over 100 µM throughout.
Regarding `C#Cc1cc(Br)c(OC(=O)C(C)(C)C)c(-c2cc(C#C)cc(Br)c2OC(=O)C(C)(C)C)c1`, the TGI with 786-0 renal was over 100 µM; in the experiment with ACHN renal, 73.8 µM; in the experiment on BT-549 breast, over 100 µM; in the experiment on COLO 205 colon, over 100 µM; in the experiment with HCT-116 colon, over 100 µM; with HCT-15 colon, over 100 µM. Also, the TGI in the experiment on HS 578T breast is over 100 µM; in the experiment with IGROV1 ovarian, over 100 µM; with MDA-MB-435, over 100 µM; in the experiment with MOLT-4 leukemia it was over 100 µM; with NCI-H460 lung, over 100 µM; in the experiment with OVCAR-5 ovarian it was 66 µM. Also, the TGI with SF-268 CNS, in the experiment with SK-MEL-28 melanoma, in the experiment on SK-OV-3 ovarian, in the experiment on SW-620 colon and with T-47D breast was over 100 µM each time.
As to `CC1CN(c2cc3c(cc2F)c(=O)c(C(=O)O)cn3-c2ccc(F)cn2)CC(C)N1` (configuration not stated), the TGI in the experiment with 786-0 renal, with BT-549 breast, in the experiment with COLO 205 colon, in the experiment with HCT-116 colon, in the experiment on HCT-15 colon and with HS 578T breast was over 100 µM each time. Further, the TGI with IGROV1 ovarian, with MDA-MB-435, with MOLT-4 leukemia, in the experiment on NCI-H460 lung, with OVCAR-5 ovarian and in the experiment with SF-268 CNS was over 100 µM in each case. The TGI in the experiment with SK-MEL-28 melanoma, in the experiment on SK-OV-3 ovarian, with SW-620 colon, with T-47D breast and in the experiment on UO-31 renal was over 100 µM in each case.
As for `CCOC(=O)c1c(C)n([O-])c2cc(Cl)c(Cl)cc2[n+]1=O`, the TGI in the experiment with 786-0 renal was 84.5 µM; in the experiment on ACHN renal it was over 100 µM; in the experiment with BT-549 breast it was 75.9 µM; in the experiment with COLO 205 colon, 39 µM; with HCT-116 colon it was 46.3 µM; in the experiment on HCT-15 colon, 37.2 µM. Further, the TGI in the experiment with HS 578T breast is 58.3 µM; in the experiment with IGROV1 ovarian, 24.1 µM; with MDA-MB-435, 55.1 µM; in the experiment on MOLT-4 leukemia, 42.8 µM; in the experiment with NCI-H460 lung, 40.7 µM; in the experiment on OVCAR-5 ovarian it was over 100 µM. The TGI with SF-268 CNS was 76 µM; in the experiment with SK-MEL-28 melanoma, over 100 µM; in the experiment with SK-OV-3 ovarian, 85.9 µM; in the experiment on T-47D breast, 60.1 µM; with UO-31 renal, 67.1 µM.
`O=C(O)CCC(N=NNc1ccc(-c2nc3ccccc3[nH]2)cc1)C(=O)O` (configuration not stated): the TGI is over 100 µM in the experiment on 786-0 renal; over 100 µM with ACHN renal; 70.6 µM in the experiment on BT-549 breast; over 100 µM with COLO 205 colon; over 100 µM in the experiment on HCT-116 colon; over 100 µM in the experiment on HCT-15 colon. Further, the TGI with HS 578T breast, in the experiment with IGROV1 ovarian, in the experiment on MDA-MB-435, with MOLT-4 leukemia, with NCI-H460 lung and in the experiment with OVCAR-5 ovarian was over 100 µM in each case. In addition, the TGI in the experiment with SK-MEL-28 melanoma, in the experiment with SK-OV-3 ovarian, in the experiment with SW-620 colon, with T-47D breast and with UO-31 renal was over 100 µM in each case.
As for `CC(=O)OC[C@@]12Cc3ccc(C)c(O)c3[C@]1(C)[C@@H](OC(C)=O)[C@]1(O)[C@H]([C@@H](OC(=O)c3ccccc3)[C@@H](C)[C@H]1OC(C)=O)[C@H]2OC(C)=O`, the TGI with 786-0 renal, in the experiment with ACHN renal, in the experiment with BT-549 breast, in the experiment with COLO 205 colon, in the experiment with HCT-116 colon and in the experiment on HCT-15 colon was over 50 µM each time. Also, the TGI in the experiment with HS 578T breast, with IGROV1 ovarian, with MDA-MB-435, in the experiment with MOLT-4 leukemia, in the experiment on NCI-H460 lung and in the experiment with OVCAR-5 ovarian was over 50 µM throughout. Moreover, the TGI with SF-268 CNS, in the experiment with SK-OV-3 ovarian, in the experiment with SW-620 colon, in the experiment on T-47D breast and in the experiment with UO-31 renal was over 50 µM throughout.
Take `CC(C)(C)OC(=O)NCCCC(=O)NC1(c2cc3ccccc3s2)CCCCC1`: the TGI was 37.4 µM in the experiment on 786-0 renal; 41 µM with ACHN renal; 32.7 µM in the experiment with BT-549 breast; 29 µM in the experiment with COLO 205 colon; 30.1 µM with HCT-116 colon; 45.5 µM in the experiment on HCT-15 colon. Besides, the TGI with HS 578T breast worked out at 45.8 µM; in the experiment with IGROV1 ovarian, 46.2 µM; with MDA-MB-435, 33.1 µM; with MOLT-4 leukemia, 34.4 µM; with NCI-H460 lung it was 40.1 µM; with SF-268 CNS, 39.7 µM. Further, the TGI is 31.3 µM in the experiment on SK-MEL-28 melanoma; 99.5 µM with SK-OV-3 ovarian; 52.8 µM in the experiment with SW-620 colon; over 100 µM with T-47D breast; 14.8 µM with UO-31 renal.
